Measured values published in patent US5543415A, “Antidepressants” (Kyowa Hakko Kogyo Co., Ltd., priority 1992, dated 1996).

System: ddY-strain male mice
Assay: Acute Toxicity Test (minimum lethal dose, oral)
Type: in vivo
Settings: seven days after administration
Method: Test compounds were orally administered to groups of ddY-strain male mice weighing 20±1 g, each group consisting of three mice. Seven days after the administration, minimum lethal dose (MLD) of each compound was determined by observing the mortality.

| Structure (SMILES) | MLD (minimum lethal dose) [mg/kg] |
| --- | --- |
| CCn1c(=O)c2c(nc(/C=C/c3cccc(OC)c3)n2C)n(CC)c1=O [Compound 140, (E)-1,3-Diethyl-8-(3-methoxystyryl)-7-methylxanthine] | > 300 |
| CCn1c(=O)c2[nH]c(/C=C/c3ccc(Br)cc3)nc2n(CC)c1=O [Compound 141, (E)-8-(4-Bromostyryl)-1,3-diethylxanthine] | > 100 |
| CCn1c(=O)c2c(nc(/C=C/c3ccc(Br)cc3)n2C)n(CC)c1=O [Compound 142, (E)-8-(4-Bromostyryl)-1,3-diethyl-7-methylxanthine] | > 100 |
| CCn1c(=O)c2[nH]c(/C=C/c3cccc(OC(F)(F)F)c3)nc2n(CC)c1=O [Compound 143, (E)-1,3-Diethyl-8-(3-trifluoromethoxystyryl)xanthine] | > 100 |
| CCn1c(=O)c2c(nc(/C=C/c3cccc(OC(F)(F)F)c3)n2C)n(CC)c1=O [Compound 144, (E)-1,3-Diethyl-7-methyl-8-(3-trifluoromethoxystyryl)xanthine] | > 100 |
| CCn1c(=O)c2[nH]c(/C=C/c3ccc(OCOC)cc3)nc2n(CC)c1=O [Compound 145, (E)-1,3-Diethyl-8-(4-methoxymethoxystyryl)xanthine] | > 100 |
| CCn1c(=O)c2c(nc(/C=C/c3ccc(OCOC)cc3)n2C)n(CC)c1=O [Compound 146, (E)-1,3-Diethyl-8-(4-methoxymethoxystyryl)-7-methylxanthine] | > 100 |
| CCCCOc1ccc(/C=C/c2nc3c([nH]2)c(=O)n(CC)c(=O)n3CC)cc1 [Compound 147, (E)-8-(4-Butoxystyryl)-1,3-diethylxanthine] | > 100 |
| CCn1c(=O)c2[nH]c(/C=C/c3ccc(F)cc3)nc2n(CC)c1=O [Compound 149, (E)-1,3-Diethyl-8-(4-fluorostyryl)xanthine] | > 100 |
| CCn1c(=O)c2[nH]c(/C=C/c3ccc(C)cc3)nc2n(CC)c1=O [Compound 151, (E)-1,3-Diethyl-8-(4-methylstyryl)xanthine] | > 100 |
| CCn1c(=O)c2[nH]c(/C=C/c3cc(C(F)(F)F)cc(C(F)(F)F)c3)nc2n(CC)c1=O [Compound 153, (E)-8-[3,5-Bis(trifluoromethyl)styryl]-1,3-diethylxanthine] | > 100 |
| CCn1c(=O)c2c(nc(/C=C/c3cc(C(F)(F)F)cc(C(F)(F)F)c3)n2C)n(CC)c1=O [Compound 154, (E)-8-[3,5-Bis (trifluoromethyl)styryl]-1,3-diethyl-7-methylxanthine] | > 100 |
| CCn1c(=O)c2[nH]c(/C=C/c3cc(F)cc(F)c3)nc2n(CC)c1=O [Compound 155, (E)-8-(3,5-Difluorostyryl)-1,3-diethylxanthine] | > 100 |
| CCn1c(=O)c2c(nc(/C=C/c3cc(F)cc(F)c3)n2C)n(CC)c1=O [Compound 156, (E)-8-(3,5-Difluorostyryl)-1,3-diethyl-7-methylxanthine] | > 100 |
| CCn1c(=O)c2[nH]c(/C=C/c3ccccc3OC)nc2n(CC)c1=O [Compound 157, (E)-1,3-Diethyl-8-(2-methoxystyryl)xanthine] | > 100 |
| CCn1c(=O)c2c(nc(/C=C/c3ccccc3OC)n2C)n(CC)c1=O [Compound 158, (E)-1,3-Diethyl-8-(2-methoxystyryl)-7-methylxanthine] | > 100 |
| CCn1c(=O)c2[nH]c(/C=C/c3cccc([N+](=O)[O-])c3)nc2n(CC)c1=O [Compound 159, (E)-1,3-Diethyl-8-(3-nitrostyryl)xanthine] | > 100 |
